Measured values as given in US10493061B2, “Compositions and methods comprising 2-(acylamino)imidazoles” (priority 2014, dated 2019).
“Also recorded” adds a separate entry of the source.

Experiments:
[1] = system: cancer cells (malignant cell types tested); assay: Clonogenic cell survival assay; details: 24 hours ZNA, then three weeks of growth, crystal violet
Experimental: Clonogenic cell survival assays were conducted as described in Franken NAP, Rodermond H M, Stap J, Haveman J, van Bree C.
Further experiments were also conducted to assess the effects of short-term ZNA treatment on long-term cell survival and proliferation. Cells were treated for 24 hours with ZNA then cultured in the absence of the small molecule; following three weeks of growth, colonies were stained with crystal violet and quantified (FIG. 1D).

[2] = system: MCF-10A normal mammary epithelial cell line; assay: Cell death by propidium iodide staining and flow cytometry; assay type: cell-based, human
Experimental: Measurement of cell death by propidium iodide staining: Cells were cultured to 80% confluence in 6-well plates and the growth media was then replaced with low serum (2% FBS) drug-containing media. Each condition was assessed in triplicate. Following the completion of treatment, the media and floating cells were collected and combined with the trypsinized adherent cells. The cells were washed with 2% FBS/HBSS, and resuspended in a propidium iodide solution (Cell Signaling) for analysis by flow cytometry. The percentage of propidium iodide positive cells for each treatment condition were averaged and normalized to the vehicle-treated control. The normalized data were plotted as the average±standard error of three replicates.
In order to validate the transition metal screen with a second cell viability assay, propidium iodide uptake was measured in four cell lines by flow cytometry following a 24-hour treatment with either 30 μM ZNA alone or in combination with 30 µM CuSO4 or 30 μM ZnSO4 (FIG. 2B).
Since autophagy can stimulate both pro-death and pro-survival pathways, experiments were next conducted to assess how autophagic inhibitors impacted ZNA's cell death profile. […] As such, cells were treated with ZNA in combination with chloroquine, an inhibitor of autophagosome function, and cell death was assessed by propidium iodide stain following 72 hours of treatment. […]

[3] = system: hTERT-HMEC normal mammary epithelial cells; assay: Dose response, ATP cell viability assay; assay type: cell-based, human
[4] = system: transplanted PyMT mammary tumors; assay: Mouse mammary tumor model (transplanted PyMT tumors), Kaplan-Meier survival; assay type: in vivo
Experimental: In vivo ZNA studies: Mouse studies were conducted with the approval of an institutional animal care and use committee. FVB/NJ mice were obtained from The Jackson Laboratory (Bar Harbor, Me., USA). In preparation for the in vivo study, EF1α-PyMT mouse mammary tumors were generated in donor mice and the tumors resected and prepared as single cells as described previously by Smith et al. (6). These cells were suspended in Matrigel (BD Biosciences) and injected (50,000 cells per 10 μL injection) into the uncleared mammary fat pad of 3-week old female recipient FVB/NJ mice. Twenty-one days following the transplant, the mice were randomized, and drug treatment was initiated; the mice were treated once a day for 21 days, and a tumor diameter ≥2 cm was established as an endpoint. ZNA (100 mg/kg) or the matched vehicle control was administered to each mouse via a 200-μL intraperitoneal injection of ZNA diluted into DMSO, then diluted into phosphate buffered saline to a final DMSO concentration of 5%. ZnSO4 was administered continuously for the 21-day treatment period to the appropriate groups via drinking water (25 mM ZnSO4.7H2O).
Statistics: The student's t-test (unpaired) was used to assess statistical significance and a p≤0.05 was considered statistically significant. Statistical significance between Kaplan-Meier survival curves was measured by the Mantel-Cox test using Prism 6.0 (GraphPad Software). The following P-values were used to annotate statistical significance: p≤0.05=*; p≤0.01=**; p≤0.001=***.
Next, the efficacy of the compound was tested in an in vivo tumor model. […] Mice were treated once a day for 21 days, and four treatment conditions were assessed: ZNA (100 mg/kg administered via intraperitoneal), ZnSO4 (25 mM administered continuously for the duration of treatment via drinking water), a combination of ZNA and ZnSO4, and a control group (PBS administered via intraperitoneal injection); a tumor diameter greater than 2 cm was established as an endpoint.

MCF-10A cells = assay: Total cellular Zn^2+ by ICP-AES; assay type: cell-based, human; details: 30 μM ZNA with 30 μM ZnSO4, three hours; detection limit 1.00 μg/L
Experimental: (§1) Inductively coupled plasma-atomic emission spectroscopy (ICP-AES) analysis: Cells were cultured to 80% confluence in 10-cm plates and the growth media was then replaced with low serum (2% FBS) drug-containing media. After three hours of treatment, the media was discarded and the cells washed with 1×PBS. To each 10-cm plate, 1 mL of nitric acid (TraceSELECT Ultra for trace analysis, Sigma) was added directly to the plate. The nitric acid mixture was submitted for inductively coupled plasma-atomic emission spectroscopy (ICP-AES) analysis following methods established by the Environmental Protection Agency. Martin T D, Brockhoff C A, Creed J T. Method 200.7 Determination of Metals and Trace Elements in Water and Wastes by Inductively Coupled Plasma-Atomic Emission Spectrometry. Environmental Monitoring Systems Laboratory, US Environmental Protection Agency 1994. The experiment was performed in triplicate for each cell line and a fourth plate of cells was used to measure total protein (BCA assay, Thermo Fisher, Waltham, Mass., USA). The ICP-AES data were then normalized to total protein for each cell line used.
(§2) To further validate the combinatorial effect of ZNA and Zn^2+, inductively coupled plasma-atomic emission spectroscopy (ICP-AES) was employed to quantify absolute levels of cellular Zn^2+ following treatment. Four cell lines were treated with either 30 μM ZNA alone or 30 μM ZNA in conjunction with 30 μM ZnSO4 for three hours before harvesting. The samples were then analyzed by ICP-AES and the resulting data normalized to total protein (FIG. 8). […] The values obtained from the ICP-AES experiment correlate with the trends observed following FluoZin-3 measurements of Zn^2+, confirming the specificity of the fluorophore for Zn^2+ over other ions.

MCF-7 cells = assay: Total cellular Zn^2+ by ICP-AES; assay type: cell-based, human; details: 30 μM ZNA with 30 μM ZnSO4, three hours
Experimental: as §1, §2

T47D cells = assay: Total cellular Zn^2+ by ICP-AES; assay type: cell-based, human; details: 30 μM ZNA with 30 μM ZnSO4, three hours
Experimental: as §1, §2

[5] = Zn^2+ binding, (ZNA)2Zn dimer formation (MeOH precipitation, X-ray, NMR)
Description: The structure of the solid product was confirmed by X-ray crystallography (FIG. 14B). […] HCl in D2O protonates the ligand off the metal center, as evidenced by the disappearance of the diastereotopic benzyllic AB quartet in the dimer and its appearance as a singlet in the monomer. […] Of the analogues evaluated, those with more electron-donating groups at C5 or on the N^2-carbonyl seem to improve activity.

[6] = system: metal trafficking genes (MT1F, MT1X, MT2A, SLC30A1, SLC30A2) in MCF-7 cells; assay: Transcriptome sequencing (RNA-seq); details: 30 μM ZNA, 3 hours, sustained at 12 hours

COc1ccc(-c2c(Cc3ccccc3)[nH]/c(=N\C(=O)c3ccccc3F)n2C)cc1 [ZNA, (E)-N-(4-benzyl-5-(4-methoxyphenyl)-1-methyl-1H-imidazol-2(3H)-ylidene)-2-fluorobenzamide]
long-term proliferative potential (colonies) [1]: significantly affected long-term proliferative potential
cell death (propidium iodide uptake) ([2]; 30 μM ZNA with 30 μM ZnSO4, 24 hours): unaffected
ZNA-induced cell death (propidium iodide) ([2]; ZNA with chloroquine, 72 hours): did not significantly affect cell death
cell viability [3]: largely unaffected
survival ([4]; ZNA 100 mg/kg ip once a day for 21 days, vs control-treated group): statistically significant survival advantage
survival ([4]; ZNA 100 mg/kg ip once a day with 25 mM ZnSO4 in drinking water, 21 days, vs ZnSO4-only group): statistically significant survival advantage
general toxicity, adverse reactions, body weight ([4]; mice, ZNA 100 mg/kg alone or with ZnSO4): no general toxicity, adverse reactions, or decreases in body weight were observed; also recorded: without detrimental effects on mouse weight and health
concentration of Zn^2+ (MCF-10A cells): not detectable
concentration of Zn^2+ (MCF-7 cells): 1.35 ng Zn^2+ per microgram of protein
concentration of Zn^2+ (T47D cells): 0.52 ng Zn^2+ per microgram of protein
Zn^2+ binding [5]: binds Zn^2+ in a pH dependent fashion
metallothionein gene expression (MT1F, MT1X, MT2A) [6]: increased metallothionein gene expression
